Experiment: solution-based β-gal activity assay (ONPG hydrolysis)
Type: biochemical
Method: For the solution-based activity assay, β-gal fragments were added, either individually or in complementing pairs, to uncoated 96-well microtiter assay plates in equal molar amounts and incubated at room temperature on an orbital rocker for 1 hr. Full-length β-gal (1 mg/ml) was serially diluted to create a standardized concentration curve. At time zero, the assay was initiated by using a 12-channel pipettor to add 20 μl of ONPG (4 mg/ml) to each well of the microplate. In the endpoint assay, the microplates were incubated at room temperature for the appropriate length of time, e.g., 30 min, before the reaction was terminated by the addition of 50 μl of 1 M Na2CO3. Then, the absorbance (420 nm) was read in a Tecan Infinite 200 plate reader (Tecan; San Jose, CA). The absorbance data was transferred to a Microsoft Excel spreadsheet and the amount of ONPG substrate hydrolyzed was calculated.
To test the ability of the split-fragments to spontaneously refold and aggregate into tetramers in solution, complementing pairs of β-gal fragments were combined and assessed in a solution-based activity assay. Levels of active β-gal expression were measured by its catalytic hydrolysis of ortho-nitrophenyl-β-D-galactopyranoside (ONPG), a synthetic chromogenic substrate, to orthonitrophenol (ONP), a yellow product (λmax=420 nm). […]

## Full length β-gal: purified full length biotinylated E. coli β-galactosidase prepared in the laboratory, 135 kDa
19 hour incubation period, FIG. 7C
  time at which optimally active: 30 min
Increasing amounts of enzyme, FIG. 7A
  enzyme activity versus commercially available purchased β-gal: virtually identical
